Source: EP1321467A2, “High affinity inhibitors for target validation and uses thereof” (Princeton University, priority 1999, dated 2000)
Like-named read-outs stand apart in the source and are kept apart here.

Tests used:
wild type protein kinase = assay: In vitro kinase reactions with radiolabeled nucleotide in murine lymphocyte lysates; type: biochemical; settings: 100 µM, 37°C, 10 min, autoradiogram
Experimental: For this it is preferably that no wild-type kinase, including ser/thr specific kinase (which carry out the bulk of cellular phosphorylation, as only 0.03% of all phosphoamino acids are tyrosine) (65), substantially accept the synthetic substrate. To establish that [γ-^32P]
These assays were performed in a manner similar to the procedure set forth in Example 2, with the exception of the use of radiolabeled [γ-^32P] […] Proteins were separate by 12.5% SDS-PAGE. The gel was soaked in 10% acetic acid, 10% isopropanol for 1 h. after which it was dried in a gel dryer and exposed to Biomax MS film (Kodak # 111-1681) for 1 h.
The results are shown in Figure 5(b), which is an autoradiogram showing the level of phosphorylation in hypotonically lysed murine lymphocytes with [γ-^32P] […] In principle, the ability to follow one protein kinase's activity in the presence of all other cellular kinase would allow for the identification of the direct kinase targets in a particular cell type by using membrane permeabilization (66) and a cell permeable form of A*TP to introduce [γ-^32P] A*TP into cells (67).

GST-XD4(V323A, I338A) [1] = biological target: T1, GST-XD4(V323A, I338A) (Rous sarcoma virus subgroup A, UniProt P00524, DEL77-225/I338A/V323A); type: biochemical; settings: nucleotide saturated; read-out: KM for RR-Src
T1 construct: double alanine mutant of the v-Src catalytic domain, (the XD4 fragment) were made as glutathione S-transferase (GST) fusion proteins (GST-XD4); made in house; host or cells: E. coli (DH5a), pGEX-KT

GST-XD4(V323A, I338A) [2] = type: biochemical
Experimental: (§1) Kinetic constants were determined by analysis of Lineweaver-Burk plots of the rate data (64). […]

GST-XD4(V323A, I338A) [3] = biological target: T1, GST-XD4(V323A, I338A); type: biochemical; settings: RR-Src 1 mM, 37°C, pH 8.0
Experimental: as §1

GST-XD4 [4] = settings: read-out: KM for RR-Src; nucleotide saturated
Cdc28·MBP-C1b2 [5] = biological target: T2, Cdc28·MBP-C1b2 (Saccharomyces cerevisiae, UniProt P00546); assay: ATP kinetics, Histone H1 phosphorylation; type: biochemical; settings: read-out: ATP Kinetics Km; Eadie-Hofstee
T2 construct: His6 (C); made in house; host or cells: Sf9 insect cells, baculovirus, co-infected with Cak1-HA3 (Cdc28-His6); bacteria (MBP-Clb2)

Cdc28-as1·MBP-C1b2 [6] = biological target: T3, Cdc28-as1·MBP-C1b2 (Saccharomyces cerevisiae, UniProt P00546, F88G); settings: Eadie-Hofstee
GST-XD4 [7] = assay: Kinetics for phosphate donor substrates; type: biochemical; settings: RR-Src 1 mM, 37°C, pH 8.0
Experimental: as §1

cdc28-as1 cells [8] = assay: Genome-wide transcription, oligonucleotide microarray; type: cell-based, Saccharomyces cerevisiae; settings: 500 nM, two hours, asynchronous cells
cdc28-as1 strain = assay: Yeast growth; type: cell-based, Saccharomyces cerevisiae
I338G v-Src = biological target: T4, I338G v-Src (Rous sarcoma virus subgroup A, UniProt P00524, DEL77-225/I338G); assay: biochemical; type: biochemical
T4 construct: catalytic domain of the target kinase, I338G v-Src, which was expressed in bacteria and purified as a glutathione-S-transferase (GST) fusion protein; made in house; host or cells: E. coli DH5a, pGEX-KT

WT v-Src = biological target: T5, WT v-Src (Rous sarcoma virus subgroup A, UniProt P00524, DEL77-225); assay: biochemical; type: biochemical
T5 construct: glutathione-S-transferase fusion proteins of wild type v-Src catalytic domain, I338G v-Src SH1, and WT Fyn into the pGEX-KT plasmid; GST (N); made in house; host or cells: E. coli DH5a, pGEX-KT

Cdc28·MBP-C1b2 [9] = biological target: T2, Cdc28·MBP-C1b2; assay: 1-NM-PP1 IC50, Histone H1 phosphorylation; type: biochemical
Experimental: (§2) Purification of Cdc28-His6, Cdc28-as1-His6, MBP-Clb2: Lysate was prepared from insect cells co-infected with baculoviruses encoding Cdc28-His6 or Cdc28-as1-His6 and Cak1-HA3 (151). Cdc28-His6 and Cdc28-as1-His6 were purified by metal affinity chromatography as described (152), followed by […]. MBP-Clb2 was purified from lysates of bacteria expressing MBP-Clb2 (a gift of R. Deshaies) on an amylose column (NEBL), followed by anion-exchange chromatography (Pharmacia Q Sepharose Fast Flow).
(§3) Phosphate incorporation was determined at each inhibitor concentration by scintillation counting.

cdc28-as1 cells [10] = assay: Cell cycle analysis, DNA content and morphology; type: cell-based, Saccharomyces cerevisiae; settings: 500 nM, cells arrested in late mitosis with cdc15-2
Experimental: DNA flow cytometry: Approximately 1x10^7 cells for each sample were fixed in 70% ethanol, resuspended in 50 mM Tris-HCl pH 8.0, briefly sonicated, digested with 2mg/ml RNase for 2 hours at 37°C, and resuspended in 0.2 ml protease solution (5 mg/ml pepsin. 0.5% concentrated HC1) and digested for 45 minutes at 37°C. DNA was stained with 1µM Sytox Green (Molecular Probes) in 50 mM Tris-HCl pH 7.5 and 20,000 cells from each sample were scanned with a FACScan FACS machine (Becton-Dickinson).
Thus, it appears possible to titrate the level of Cdc28-as1 activity in vivo, allowing the identification of cell cycle events that are differentially sensitive to decreases in the catalytic activity of Cdc28.
[…], initiation of budding and DNA synthesis were delayed about 30 to 60 minutes, while accumulation of the mitotic cyclin C1b2 was delayed 60 to 90 minutes. Cells went on to arrest with moderate C1b2 levels, highly hyperpolarized buds, and a G2/M DNA content, much like the arrest observed in asynchronous cells. […] Thus, cells treated with low concentrations of the inhibitor are slightly delayed during progression through early stages of the cell cycle, but eventually arrest due to a failure to assemble a mitotic spindle and enter mitosis.

wild-type cells [11] = assay: Genome-wide transcription, oligonucleotide microarray; type: cell-based, Saccharomyces cerevisiae; settings: 500 nM, 30 minutes
Experimental: Changes were deemed significant if they were greater than or equal to 2-fold or if the transcript changed present/absent status (as indicated by Affymetrix software) in the following comparisons: for non-specific drug effects: CDC28 + 1 -NM-PP1 vs CDC28: for cdc28-as1 effects: cdc28-as1 vs. CDC28.
Next, the effects of the inhibitor 1-NM-PP1 on cell growth and morphology were analyzed.

WT Fyn = biological target: T6, WT Fyn (Homo sapiens, UniProt P06241); assay: In vitro kinase inhibition assay; type: biochemical; settings: Table 3
T6 construct: GST (N); made in house; host or cells: E. coli DH5a, pGEX-KT

Cdc28-as1·MBP-C1b2 [12] = biological target: T3, Cdc28-as1·MBP-C1b2; assay: 1-NM-PP1 IC50, Histone H1 phosphorylation; type: biochemical; design: His6 (C); made in house; host or cells: Sf9 insect cells, baculovirus, co-infected with Cak1-HA3 (Cdc28-as1-His6); bacteria (MBP-Clb2)
Experimental: as §2, §3

wild-type cells [13] = assay: Yeast growth; type: cell-based, Saccharomyces cerevisiae
I338A v-Src = I338A v-Src (Rous sarcoma virus subgroup A, UniProt P00524, I338A); assay: biochemical
[14] = test system: S. cerevisiae expressing either wild-type Fus3, Fus3-asl, or no Fus3; assay: Non-selective cytotoxicity control, plating of mating cultures on YPD; settings: any of the three strains
[15] = test system: wild-type Fus3 expressing cells; assay: Yeast mating assay for Fus3 function; type: cell-based, Saccharomyces cerevisiae; settings: all concentrations up to 50 µM
fus3-as1 strain = assay: Yeast mating assay for Fus3 function; type: cell-based, Saccharomyces cerevisiae
F80G CDK2 = biological target: T7, F80G CDK2 (Homo sapiens, UniProt P24941, F80G); assay: In vitro inhibition of phosphorylation of an exogenous substrate, kinase panel; type: biochemical
T7 construct: made in house

[16] = test system: panel of wild-type protein kinases; assay: In vitro inhibition, panel of wild-type protein kinases; type: biochemical
glycine mutants = assay: In vitro inhibition, all glycine mutant kinases of the panel; type: biochemical; settings: read-out: IC 50's for all of the glycine mutants
F89G CAMK IIα = biological target: T8, F89G CAMK IIα (Homo sapiens, UniProt Q9UQM7, F89G); assay: In vitro inhibition of phosphorylation of an exogenous substrate, kinase panel; type: biochemical
T8 construct: made in house

[17] = 1-NM-PP1 IC50 @ 10 µM ATP, 10 µM ATP
[18] = 1-NM-PP1 IC50 @ 1 mM ATP, 1 mM ATP

T3 sequence (P00546 whole entry F88G): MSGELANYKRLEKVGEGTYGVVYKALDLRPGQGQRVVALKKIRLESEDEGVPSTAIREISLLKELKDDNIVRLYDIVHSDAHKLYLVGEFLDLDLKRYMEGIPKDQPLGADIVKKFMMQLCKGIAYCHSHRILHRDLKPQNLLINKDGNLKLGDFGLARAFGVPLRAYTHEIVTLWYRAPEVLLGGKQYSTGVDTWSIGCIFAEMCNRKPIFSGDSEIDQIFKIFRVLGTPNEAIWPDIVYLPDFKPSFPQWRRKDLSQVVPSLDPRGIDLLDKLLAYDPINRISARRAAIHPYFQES
T3 sequence (P24869 whole entry, further chain): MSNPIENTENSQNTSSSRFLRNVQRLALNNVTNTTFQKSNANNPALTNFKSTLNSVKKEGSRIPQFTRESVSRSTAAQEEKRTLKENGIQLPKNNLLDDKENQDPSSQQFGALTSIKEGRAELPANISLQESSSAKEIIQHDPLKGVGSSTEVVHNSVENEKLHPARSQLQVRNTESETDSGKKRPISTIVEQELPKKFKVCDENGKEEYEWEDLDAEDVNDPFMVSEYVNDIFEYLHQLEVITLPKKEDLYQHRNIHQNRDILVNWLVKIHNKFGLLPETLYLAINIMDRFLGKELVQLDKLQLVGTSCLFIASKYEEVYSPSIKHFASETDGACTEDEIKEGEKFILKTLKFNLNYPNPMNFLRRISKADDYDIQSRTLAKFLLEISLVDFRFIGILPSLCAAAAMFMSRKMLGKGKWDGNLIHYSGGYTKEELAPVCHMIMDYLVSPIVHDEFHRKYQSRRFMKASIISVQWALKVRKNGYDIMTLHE
T2 sequence (P00546 whole entry): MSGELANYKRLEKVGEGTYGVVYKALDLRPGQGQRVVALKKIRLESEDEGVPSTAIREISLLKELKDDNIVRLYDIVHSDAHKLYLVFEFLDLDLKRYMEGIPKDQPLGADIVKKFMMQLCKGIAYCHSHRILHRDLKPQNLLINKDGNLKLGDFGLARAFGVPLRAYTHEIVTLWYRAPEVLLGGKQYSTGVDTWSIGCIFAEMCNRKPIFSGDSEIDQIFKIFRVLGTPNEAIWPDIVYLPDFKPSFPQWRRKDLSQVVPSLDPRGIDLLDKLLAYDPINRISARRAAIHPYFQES
T2 sequence (P24869 whole entry partner): as the sequence (P24869 whole entry, further chain) above
T8 sequence (Q9UQM7 whole entry F89G): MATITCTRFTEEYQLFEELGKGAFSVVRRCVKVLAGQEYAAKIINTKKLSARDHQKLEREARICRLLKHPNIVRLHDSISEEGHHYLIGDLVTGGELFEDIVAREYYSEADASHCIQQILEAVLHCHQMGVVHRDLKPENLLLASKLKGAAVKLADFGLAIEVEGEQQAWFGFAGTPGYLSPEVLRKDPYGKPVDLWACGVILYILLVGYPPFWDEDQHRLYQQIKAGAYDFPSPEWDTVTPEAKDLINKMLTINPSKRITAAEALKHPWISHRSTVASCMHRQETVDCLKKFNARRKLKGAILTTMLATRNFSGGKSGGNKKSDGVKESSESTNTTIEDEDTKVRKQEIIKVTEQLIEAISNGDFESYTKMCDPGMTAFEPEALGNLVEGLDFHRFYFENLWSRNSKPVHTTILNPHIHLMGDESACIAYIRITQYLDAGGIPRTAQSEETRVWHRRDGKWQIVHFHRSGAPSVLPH
T6 sequence (P06241 1-534 isoform P06241-2): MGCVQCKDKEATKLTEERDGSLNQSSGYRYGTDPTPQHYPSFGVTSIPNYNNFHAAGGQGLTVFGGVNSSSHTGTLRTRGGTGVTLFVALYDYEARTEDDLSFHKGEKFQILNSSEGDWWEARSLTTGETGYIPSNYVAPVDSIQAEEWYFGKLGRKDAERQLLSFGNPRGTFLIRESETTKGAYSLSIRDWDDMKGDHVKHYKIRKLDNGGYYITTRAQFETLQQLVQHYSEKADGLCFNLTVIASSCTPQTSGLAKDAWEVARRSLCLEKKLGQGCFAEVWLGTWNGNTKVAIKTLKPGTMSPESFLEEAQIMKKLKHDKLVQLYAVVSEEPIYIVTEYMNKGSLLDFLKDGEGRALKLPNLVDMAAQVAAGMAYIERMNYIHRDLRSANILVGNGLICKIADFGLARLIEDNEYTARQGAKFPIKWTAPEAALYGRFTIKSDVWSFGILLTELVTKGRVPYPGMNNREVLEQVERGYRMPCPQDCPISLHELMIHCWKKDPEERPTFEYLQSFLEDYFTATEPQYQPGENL

O=P(O)(O)OP(=O)(O)OP(=O)(O)OC[C@H]1O[C@@H](n2cnc3c(NC4CCCC4)ncnc32)[C@H](O)[C@@H]1O [ATP analog 8, N^6(cyclopentyl)ATP]
radiolabeled phosphoproteins in the cell lysate (wild type protein kinase): no radiolabeled phosphoproteins | Km (GST-XD4(V323A, I338A) [1]): 2100 ± 900 µM | kcat/KM lower than the kcat/KM of the wild-type kinase with ATP (GST-XD4(V323A, I338A) [2]; mutant with analog versus wild type with ATP): 50 fold | Km (GST-XD4(V323A, I338A) [3]): 15 ± 3 µM

Nc1ncnc2c1ncn2[C@@H]1O[C@H](COP(=O)(O)OP(=O)(O)OP(=O)(O)O)[C@@H](O)[C@H]1O [ATP, adenosine triphosphate]
Km (GST-XD4 [4]): 2600 ± 900 µM | Km (Cdc28·MBP-C1b2 [5]): 35 µM | ATP Kinetics kcat (Cdc28-as1·MBP-C1b2 [6]): 0.355 s⁻¹ | Km (Cdc28-as1·MBP-C1b2 [6]; read-out: ATP Kinetics Km): 322 µM | Km (GST-XD4 [7]): 12 ± 3 µM | KM of the mutant higher than the KM of GST-XD4 (GST-XD4(V323A, I338A) [2]; mutant versus GST-XD4): more than 10 fold | Km (GST-XD4(V323A, I338A) [3]): 150 ± 20 µM | kcat (GST-XD4(V323A, I338A) [3]): 0.013 ± 0.0033 s⁻¹

CC(C)(C)n1nc(Cc2cccc3ccccc23)c2c(N)ncnc21 [Compound 6h, 4-amino-1-(tert-butyl)-3-(1'-naphthylmethyl)pyrazolo[3,4-d]pyrimidine]
genes with […] or greater changes in transcription (cdc28-as1 cells [8]): 104 genes | IC50 (cdc28-as1 strain; Saccharomyces cerevisiae, read-out: inhibitor concentration at which growth was inhibited 50%): 50 to 100 nM | IC50 (I338G v-Src): 4.2 nM | IC50 (WT v-Src): 28000 nM | IC50 (Cdc28·MBP-C1b2 [9]; 1 mM ATP, text b306, read-out: IC50): 44000 nM | IC50 (Cdc28·MBP-C1b2 [9]; [17]): 22000 nM | IC50 (Cdc28·MBP-C1b2 [9]; [18]): 44000 nM | time to cyclin destruction and rebudding (cdc28-as1 cells [10]): < 60 min | genes with transcription changed greater than two-fold (wild-type cells [11]): 6 genes | IC50 (WT Fyn): 1100 nM | Cdc28-as1 more sensitive than wild-type Cdc28 (Cdc28-as1·MBP-C1b2 [12]; 1 mM ATP): about 15,000 fold | IC50 (Cdc28-as1·MBP-C1b2 [12]; [17]): 2 nM | IC50 (Cdc28-as1·MBP-C1b2 [12]; [18]): 2.9 nM | IC50 (Cdc28-as1·MBP-C1b2 [12]; IC50, 1 mM ATP, text b306): ~3 nM | increase of doubling times (wild-type cells [13]; 50,000 nM): about 2 fold

CC(C)(C)n1nc(-c2cccc3ccccc23)c2c(N)ncnc21 [Compound 10]
IC50 (I338A v-Src): 1 nM | cfu/mL on YPD plates [14]: No significant decrease in cfu/mL on YPD plates | diploid colonies [15]: 0.6-1.1 x 10^5 cfu/ml | decrease from equivalent control cells (fus3-as1 strain; 500 nM): 44 fold | diploid colonies (fus3-as1 strain; 500 nM): 1.7x10^3 cfu/ml | amount of diploids formed (fus3-as1 strain; 50 µM): indistinguishable from a fus3Δ strain

CC(C)(C)n1nc(Cc2cccc3ccccc23)c2c(N)ncnc21 [Compound 11]
IC50 (F80G CDK2): 5 nM | cfu/mL on YPD plates [14]: No significant decrease in cfu/mL on YPD plates | diploid colonies [15]: 0.6-1.1 x 10^5 cfu/ml | concentration below which none of the wild-type kinases tested are inhibited [16]: ≥ 1 µM | growth of yeast which express Cdc28-as1 (cdc28-as1 strain; concentrations without effect on wild-type strains): completely ablated | IC50 (glycine mutants): < 10 nM | IC50 (F89G CAMK IIα): 8 nM | IC50 (Cdc28·MBP-C1b2 [9]; text b289, read-out: IC50): > 50000 nM | IC50 (Cdc28-as1·MBP-C1b2 [12]; IC50, text b289): 3.9 nM | decrease in mating (fus3-as1 strain; 50 µM): 85 fold | growth of wild-type strains (wild-type cells [13]; concentrations that ablate Cdc28-as1 growth): no effect on the growth of wild-type strains
